Measured values from patent US10548898B2, “Quinazoline compounds” (Gilead Sciences, Inc., priority 2014, dated 2020).
Read-outs that look alike come from different tables or passages of the source.

Experiments:
Assay type in all cases: cell-based
[1] = system: HIV-1 reverse transcriptase mutant Y181C; assay: High throughput cytopathic effect assay in MT-4 cells, Y181C mutant; conditions: for EC50: Human immunodeficiency virus 1, MT4, 120 h, read-out: MT4 EC50 (nM) against Y181C; for FC against mutant Y181C: fold change of MT4 EC50 versus w.t. assay 2
Text: (§1) Compounds were screened in a miniaturized, high throughput cytopathic effect assay for activity against HIV-1 HBX2 (wild type) and HIV-1 reverse transcriptase mutants K103N and Y181C. In Tables 1 and 2 below. “w.t.” refers to results of the tested compounds run with the wildtype 1 and “w.t, assay 2” refers results of the tested compounds run with the wildtype on the same day as the testing of the compounds with the mutants. Thus, “w.t, assay 2” was run under the same conditions as the testing of the compounds with the mutants and provides a direct comparison with the results from the testing with the mutants.
(§2) Ten-point serial dilutions of compounds with half-log step size were generated in DMSO. AZT ([…]) was used as the positive control and DMSO as the negative control. The Echo acoustic dispenser was used to deliver 200 nL of serially diluted compound into sterile 384 well tissue culture assay plates. Two million MT-4 cells were incubated with each of the 3 viruses at MOI of 0.0005 in separate 1 mL infection tubes for 1 hour at 37° C. The cells were diluted in cell culture medium (RPMI+10% FBS) to 50.000 cells/mL. The infected cells were added to 384 well assay plates containing serially dilute compounds. Assay plates were incubated for 5 days in a humidified incubator set at 37° C. and 5% CO2. To measure the cytopathic effect of HIV, 40 μL Cell TiterGlo was added to each well and the resulting luminescence signal is read with the Envision plate reader (Perkin Elmer). Data were normalized to positive and negative controls in each plate and expressed as % CPE Protection. EC50 values were defined as the compound concentration that caused a 50% decrease in luminescence signal, and were calculated by non-linear regression using Pipeline Pilot software by applying a four parameter fit equation (Accelrys, San Diego, Calif.).

[2] = system: HIV-1 recombinant strain encoding reverse transcriptase mutation K103N; assay: Resistance profile against HIV-1 RT mutants in MT-2 cells, K103N; conditions: ratio of mean EC50 mutant/WT virus
Description: (§3) Compounds were tested for antiviral activity against a panel of NNRTI resistant viruses. A panel of 8 clonal site-directed mutant viruses representing the major resistance development pathways against rilpivirine (“RPV”), efavirenz (“EFV”), and nevirapine (“NVP”), containing both single and double mutations within HIV-1 reverse transcriptase was employed. Further details and background can be found in Janssen et al. J. Med. Chem, 2005, 48, 1901-1909; Das et al., Proc. Nat. Acad. Sci., 2008, vol., 105, no. 5, 1466-1471; and Kuroda et al., Nature Chemistry, 2013, DOI: 10.1038/NCHEM. 1559. […] HIV-1 recombinant strains encoding reverse transcriptase mutations K103N, Y181C, Y188L, G190A, K103N/Y181C, L1001/Y181C, E138K or E138KIM 184V were constructed by site-directed mutagenesis. Wild-type and mutant viruses were prepared by transfecting infectious proviral HXB2-based cDNA clones into MT-2 cells and harvesting the cell supernatants. MT-2 cells were infected with wild-type and mutant HIV-1 strains at a multiplicity of infection (MOI) of 0.005 by gentle mixing for 3 hours at 37° C. and then added at a density of 16,667 cells per well in 50 μL complete RPMI cell culture media (containing 10% fetal bovine serum (FBS) and 10% penicillin-streptomycin) to 96-well plates containing 50 μL of a 3-fold serial dilution of test compounds in RPMI medium. After 5 days of incubation at 37° C. in a humidified incubator in the presence of 5% CO2. 100 μL of Cell Titer-Glo™ Reagent (Promega Biosciences, Inc., Madison, Wis.) was added to each well and the relative light units (RLU) measured on an Envision plate reader. […] The EC50 value was defined as the compound concentration inducing a 50% decrease in virus replication. Data analysis for the antiviral activity observed in MT-2 cells was performed using XL-Fit™ software (IDBS, Guildford, Surrey, UK) to calculate EC50 from an 8-point dose-response curve using the following equation:
(§4) [formula] where y=virus inhibition, x=drug concentration, M=maximum inhibition, H=minimum inhibition and n=Hill coefficient, EC50 values (mean±standard deviation) were calculated from at least three independent experiments performed in triplicate. The level of resistance was calculated as a ratio of the mean EC50 for each mutant/WT virus. Results are disclosed in FIG. 1 and in Tables 3 and 4 below.

[3] = system: HIV-1 HBX2 (wild type); assay: High throughput cytopathic effect assay in MT-4 cells, wild type HIV-1
Text: as §1, §2

[4] = system: HIV-1 recombinant strain encoding reverse transcriptase mutation Y188L; assay: Resistance profile against HIV-1 RT mutants in MT-2 cells, Y188L; conditions: ratio of mean EC50 mutant/WT virus
Description: as §3, §4

[5] = system: HIV-1 recombinant strain encoding reverse transcriptase mutation L100I/Y181C; assay: Resistance profile against HIV-1 RT mutants in MT-2 cells, L100I/Y181C; conditions: ratio of mean EC50 mutant/WT virus
Description: as §3, §4

[6] = system: HIV-1 reverse transcriptase mutant K103N; assay: High throughput cytopathic effect assay in MT-4 cells, K103N mutant; conditions: for EC50: Human immunodeficiency virus 1, MT4, 120 h, read-out: MT4 EC50 (nM) against K103N; for FC against mutant K103N: fold change of MT4 EC50 versus w.t. assay 2
Text: as §1, §2

[7] = system: HIV-1 recombinant strain encoding reverse transcriptase mutation Y181C; assay: Resistance profile against HIV-1 RT mutants in MT-2 cells, Y181C; conditions: ratio of mean EC50 mutant/WT virus
Description: as §3, §4

[8] = system: HIV-1 recombinant strain encoding reverse transcriptase mutation K103N/Y181C; assay: Resistance profile against HIV-1 RT mutants in MT-2 cells, K103N/Y181C; conditions: ratio of mean EC50 mutant/WT virus
Description: as §3, §4

[9] = Human immunodeficiency virus 1, MT4, read-out: MT4 EC50 (nM) against w.t. assay 2
[10] = Human immunodeficiency virus 1, MT4, 120 h, MT-4 cells, 5 days, cytopathic effect, Cell TiterGlo, read-out: MT4 EC50 (nM) against w.t.

Row | Compound | EC50 [1] | FC against mutant Y181C [1] | Biology resistance panel-low throughput fold change (FC) K103N [2] | EC50 [3, 9] | Biology resistance panel-low throughput fold change (FC) Y188L [4] | Biology resistance panel-low throughput fold change (FC) L100I/Y181C [5] | EC50 [6] | FC against mutant K103N [6] | Biology resistance panel-low throughput fold change (FC) Y181C [7] | Biology resistance panel-low throughput fold change (FC) K103N/Y181C [8] | EC50 [3, 10]
1 | COc1cc(Nc2nc(N)c3cccc(-c4c(C)cc(/C=C/C#N)cc4C)c3n2)ccc1C#N [Compound 3, (E)-4-((4-Amino-8-(4-(2-cyanovinyl)-2,6-dimethylphenyl)quinazolin-2-yl)amino)-2-methoxybenzonitrile] | 50.2 nM | 3.9 | 1.0 | 12.9 nM | 13.7 | 1.0 | 12 nM | 0.9 | 3.4 | 3.4 | 
2 | Cc1cc(/C=C/C#N)cc(C)c1-c1cc(F)cc2cnc(Nc3ccc(C#N)cc3)nc12 [Compound 4, (E)-4-((8-(4-(2-Cyanovinyl)-2,6-dimethylphenyl)-6-fluoroquinazolin-2-yl)amino)benzonitrile] | 47 nM | 4.8 | 1.4 | 9.8 nM | 16.9 | 5.4 | 19.1 nM | 2.0 | 4.9 | 12.8 | 9.2 nM
3 | N#C/C=C/c1cc(F)c(-c2cccc3cnc(Nc4ccc(C#N)cc4)nc23)c(F)c1 [Compound 5, (E)-4-((8-(4-(2-Cyanovinyl)-2,6-difluorophenyl)quinazolin-2-yl)amino)benzonitrile] | 12 nM | 8.2 | 1.6 | 1.5 nM | 174.0 | 18.9 | 2.5 nM | 1.7 | 15.4 | 208.0 | 1.3 nM
4 | CNc1nc(Nc2ccc(C#N)cc2)nc2c(-c3c(C)cc(/C=C/C#N)cc3C)cccc12 [Compound 30, (E)-4-((8-(4-(2-Cyanovinyl)-2,6-dimethylphenyl)-4-(methylamino)quinazolin-2-yl)amino)benzonitrile] | 55.6 nM | 4.3 |  | 13 nM |  |  | 17 nM | 1.3 |  |  | 15.9 nM
5 | CNc1nc(Nc2ccc(C#N)cn2)nc2c(-c3c(C)cc(/C=C/C#N)cc3C)cccc12 [Compound 31, (E)-6-((8-(4-(2-Cyanovinyl)-2,6-dimethylphenyl)-4-(methylamino)quinazolin-2-yl)amino)nicotinonitrile] | 432 nM | 50.5 |  | 8.6 nM |  |  | 17.6 nM | 2.1 |  |  | 10.5 nM
6 | COc1cc(/C=C/C#N)cc(OC)c1-c1cccc2c(N)nc(Nc3ccc(C#N)cc3)nc12 [Compound 32, (E)-4-((4-Amino-8-(4-(2-cyanovinyl)-2,6-dimethoxyphenyl)quinazolin-2-yl)amino)benzonitrile] | 10.5 nM | 8.3 |  | 1.3 nM |  |  | 11.5 nM | 1.2 |  |  | 1.9 nM
7 | COc1cc(/C=C/C#N)cc(OC)c1-c1cccc2cnc(Nc3ccc(C#N)cc3)nc12 [Compound 33, (E)-44-((8-(4-(2-Cyanovinyl)-2,6-dimethoxyphenyl)quinazolin-2-yl)amino)benzonitrile] | 12.3 nM | 7.9 |  | 1.5 nM |  |  | 3.2 nM | 2.1 |  |  | 2.1 nM
8 | CCc1cc(/C=C/C#N)cc(CC)c1-c1cccc2c(N)nc(Nc3ccc(C#N)cc3)nc12 [Compound 35, (E)-4-((4-Amino-8-(4-(2-cyanovinyl)-2,6-diethylphenyl)quinazolin-2-yl)amino)benzonitrile] | 38.6 nM | 2.3 |  | 16.8 nM |  |  | 16.9 nM | 1.0 |  |  | 12.8 nM
9 | CCc1cc(/C=C/C#N)cc(CC)c1-c1cccc2c(N)nc(Nc3ccc(C#N)cn3)nc12 [Compound 36, (E)-6-((4-Amino-8-(4-(2-cyanovinyl)-2,6-diethylphenyl)quinazolin-2-yl)amino)nicotinonitrile] | 87.3 nM | 8.3 |  | 10.5 nM |  |  | 10.1 nM | 1.0 |  |  | 7.7 nM
10 | Cc1cc(/C=C/C#N)cc(C)c1-c1cccc2c(NC(N)=O)nc(Nc3ccc(C#N)cc3)nc12 [Compound 37, (E)-1-(2-((4-Cyanophenyl)amino)-8-(4-(2-cyanovinyl)-2,6-dimethylphenyl)quinazolin-4-yl)urea] | 22.1 nM | 3.3 |  | 6.8 nM |  |  | 7.8 nM | 1.2 |  |  | 4.7 nM
11 | C/C(=C\C#N)c1cc(C)c(-c2cccc3c(N)nc(Nc4ccc(C#N)cc4)nc23)c(C)c1 [Compound 38, (E)-4-((4-Amino-8-(4-(1-cyanoprop-1-en-2-yl)-2,6-dimethylphenyl)quinazolin-2-yl)amino)benzonitrile] | 18.6 nM | 2.4 |  | 7.9 nM |  |  | 7 nM | 0.9 |  |  | 6 nM
12 | C/C(=C/C#N)c1cc(C)c(-c2cccc3c(N)nc(Nc4ccc(C#N)cc4)nc23)c(C)c1 [Compound 39, (Z)-4-((4-Amino-8-(4-(1-cyanoprop-1-en-2-yl)-2,6-dimethylphenyl)quinazolin-2-yl)amino)benzonitrile] | 27.2 nM | 3.0 |  | 8.9 nM |  |  | 12.1 nM | 1.4 |  |  | 5.9 nM
13 | Cc1cc(/C=C/C#N)cc(C)c1-c1cccc2c(=O)[nH]c(Nc3ccc(C#N)cc3)nc12 [Compound 41, (E)-4-((8-(4-(2-Cyanovinyl)-2,6-dimethylphenyl)-4-oxo-3,4-dihydroquinazolin-2-yl)amino)benzonitrile] | 32.8 nM | 3.4 |  | 9.5 nM |  |  | 15.7 nM | 1.6 |  |  | 6.3 nM
